The values below come from patent US20090325964A1, “Piperazine Metabotropic Glutamate Receptor 5 (MGLUR5) Negative Allosteric Modulators For Anxiety/Depression” (Wyeth, priority 2008, published 2009).

In general, Ki refers to the equilibrium dissociation constant of an inhibitor or competing ligand from its target.

The structures appear in SMILES notation.

T1 sequence (P31424 21-1203): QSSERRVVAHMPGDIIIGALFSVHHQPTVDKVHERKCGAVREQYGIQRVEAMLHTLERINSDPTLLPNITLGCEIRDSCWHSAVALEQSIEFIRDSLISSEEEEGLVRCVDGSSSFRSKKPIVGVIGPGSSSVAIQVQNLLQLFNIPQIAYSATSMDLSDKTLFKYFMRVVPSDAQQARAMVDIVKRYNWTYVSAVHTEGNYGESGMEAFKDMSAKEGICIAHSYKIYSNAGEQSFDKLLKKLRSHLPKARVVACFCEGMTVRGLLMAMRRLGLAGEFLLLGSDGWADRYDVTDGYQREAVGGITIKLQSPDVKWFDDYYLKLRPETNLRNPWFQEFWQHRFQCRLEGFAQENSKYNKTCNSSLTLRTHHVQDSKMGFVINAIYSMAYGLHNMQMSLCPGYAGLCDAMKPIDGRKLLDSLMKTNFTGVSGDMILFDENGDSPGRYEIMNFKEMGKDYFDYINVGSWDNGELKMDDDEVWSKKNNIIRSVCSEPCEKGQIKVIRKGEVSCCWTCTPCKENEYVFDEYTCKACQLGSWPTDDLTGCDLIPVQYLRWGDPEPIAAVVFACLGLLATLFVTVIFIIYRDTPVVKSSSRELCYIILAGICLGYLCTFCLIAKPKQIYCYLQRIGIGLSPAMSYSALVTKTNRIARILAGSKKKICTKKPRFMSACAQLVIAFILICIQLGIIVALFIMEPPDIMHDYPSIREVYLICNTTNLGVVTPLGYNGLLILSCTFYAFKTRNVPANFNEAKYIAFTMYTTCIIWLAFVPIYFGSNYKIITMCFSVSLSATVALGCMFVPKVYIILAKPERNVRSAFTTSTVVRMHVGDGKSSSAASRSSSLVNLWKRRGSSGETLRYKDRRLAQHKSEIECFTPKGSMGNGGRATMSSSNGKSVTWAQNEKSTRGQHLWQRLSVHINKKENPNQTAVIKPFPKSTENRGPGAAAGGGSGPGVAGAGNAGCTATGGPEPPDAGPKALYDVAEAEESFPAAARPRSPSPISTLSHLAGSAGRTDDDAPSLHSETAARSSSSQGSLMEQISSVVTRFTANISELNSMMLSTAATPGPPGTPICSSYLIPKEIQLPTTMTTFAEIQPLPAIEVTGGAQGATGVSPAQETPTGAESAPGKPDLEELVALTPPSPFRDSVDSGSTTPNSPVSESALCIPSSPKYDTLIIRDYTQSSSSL

One experiment concerns the target T1, rat mGluR5 receptor (Rattus norvegicus, UniProt P31424).
T1 construct: expressed in transfected cells; host or cells: HEK-293
Nature of the experiment: [3H]-MPEP displacement binding assay, HEK-293 cell membranes expressing rat mGluR5. Particulars: @ 10 μM compound; Biological Activity, Table 2A. The method in brief: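 Membranes from HEK-293 cells expressing rat mGluR5 (12-25 μg protein), incubated 60 min at room temperature with 4 nM [3H]-MPEP in 50 mM Tris pH 7.5, then filtered. Nonspecific binding defined with 10 μM MPEP.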
With `O=C(c1cccc(C#Cc2ccccn2)c1)N1CCN(c2ncccc2C(F)(F)F)CC1` [Compound 146, 1-[3-(pyridin-2-ylethynyl)benzoyl]-4-[3-(trifluoromethyl)pyridin-2-yl]piperzine], the “PCT INHIB (%) @ 10 μM” value is 48%.

Still in this experiment, the particulars now being: @ 10 μM compound; Biological Activity, Table 2A; read-out: PCT INHIB (%) @ 10 μM.
With `O=C(c1cccc(C#Cc2ccccc2)c1)N1CCN(c2ccncc2)CC1` [Compound 142, 1-[3-(phenylethynyl)benzoyl]-4-pyridin-4-ylpiperazine], the inhibition at 10 µM amounted to 53%.

In the case of `Cc1cccc(N2CCN(C(=O)c3cncc(C#Cc4ccccc4)c3)CC2)n1` [Compound 143, 1-(6-methylpyridin-2-yl)-4-{(5-(phenylethynyl)pyridin-3-yl]carbonyl}piperazine], the inhibition at 10 µM is 49%.

For `O=C(c1ccnc(C#Cc2ccccc2)c1)N1CCN(c2ccncc2)CC1` [Compound 144, 1-[2-(phenylethynyl)isonicotinoyl]-4-pyridin-4-ylpiperazine], the inhibition at 10 µM was 10%.

`COc1ccc(C(=O)N2CCN(c3ccncc3)CC2)cc1C#Cc1ccccc1` [Compound 145, 1-[4-methoxy-3-(phenylethynyl)benzoyl]-4-pyridin-4-ylpiperazine]: the inhibition at 10 µM was 91%.

As for `Cc1cccc(N2CCN(C(=O)c3cccc(C#Cc4ccccn4)c3)CC2)n1` [Compound 147, 1-(6-methylpyridin-2-yl)-4-[3-(pyridin-2-ylethynyl)benzoyl]piperazine], the inhibition at 10 µM came to 80%.

For `N#Cc1cccnc1N1CCN(C(=O)c2cccc(C#Cc3ccccn3)c2)CC1` [Compound 148], the inhibition at 10 µM is 74%.

`O=C(c1cccc(C#Cc2ccccn2)c1)N1CCN(c2ncc(C(F)(F)F)cc2Cl)CC1` [Compound 149, 1-[3-chloro-5-(trifluoromethyl)pyridin-2-yl]-4-[3-(pyridin-2-ylethynyl)benzoyl]piperazine]: the inhibition at 10 µM amounted to 72%.

The same experiment, now with this note: Biological Activity, Table 2A; read-out: Median Ki.
For `COc1ccc(C(=O)N2CCN(c3ccncc3)CC2)cc1C#Cc1ccccc1` [Compound 145, 1-[4-methoxy-3-(phenylethynyl)benzoyl]-4-pyridin-4-ylpiperazine], the Ki was 1300 nM.

On to `Cc1cccc(N2CCN(C(=O)c3cccc(C#Cc4ccccn4)c3)CC2)n1` [Compound 147, 1-(6-methylpyridin-2-yl)-4-[3-(pyridin-2-ylethynyl)benzoyl]piperazine], for which the Ki was 3020 nM.

With `N#Cc1cccnc1N1CCN(C(=O)c2cccc(C#Cc3ccccn3)c2)CC1` [Compound 148], the inhibition constant Ki is 1630 nM.

Regarding `O=C(c1cccc(C#Cc2ccccn2)c1)N1CCN(c2ncc(C(F)(F)F)cc2Cl)CC1` [Compound 149, 1-[3-chloro-5-(trifluoromethyl)pyridin-2-yl]-4-[3-(pyridin-2-ylethynyl)benzoyl]piperazine], the Ki is 2760 nM.

Still in this experiment, the particulars now being: [3H]-MPEP 4 nM; Table 4A; read-out: Median Ki.
Consider `Cc1cccc(OCc2cccc(C(=O)N3CCN(c4ccccn4)CC3)c2)c1` [Compound 164, 1-{3-[(3-methylphenoxy)methyl]benzoyl}-4-pyridin-2-ylpiperazine], for which the inhibitory constant (Ki) was determined as 1750 nM.

For the molecule `N#Cc1cccc(OCc2cccc(C(=O)N3CCN(c4ccccn4)CC3)c2)c1` [Compound 165, 3-({3-[(4-pyridin-2-ylpiperazin-1-yl)carbonyl]benzyl}oxy)benzonitrile], the Ki is 2970 nM.

For the molecule `CCc1cccc(OCc2cccc(C(=O)N3CCN(c4ccccn4)CC3)c2)c1` [Compound 166, 1-{3-[(3-ethylphenoxy)methyl]benzoyl}-4-pyridin-2-ylpiperazine], the Ki is greater than 10000 nM.

Regarding `COc1cccc(OCc2cccc(C(=O)N3CCN(c4ccccn4)CC3)c2)c1` [Compound 167, 1-{3-[(3-methoxyphenoxy)methyl]benzoyl}-4-pyridin-2-ylpiperazine], the inhibition constant (Ki) was greater than 10000 nM.

For `O=C(c1cccc(COc2cccc(Cl)c2)c1)N1CCN(c2ccccn2)CC1` [Compound 168, 1-{3-[(3-chlorophenoxy)methyl]benzoyl}-4-pyridin-2-ylpiperazine], the inhibitory constant (Ki) came to 813 nM.

As for `O=C(c1cccc(COc2cccc(Br)c2)c1)N1CCN(c2ccccn2)CC1` [Compound 169, 1-{3-[(3-bromophenoxy)methyl]benzoyl}-4-pyridin-2-ylpiperazine], the Ki amounted to 862 nM.

In the case of `O=C(c1cccc(COc2ccccn2)c1)N1CCN(c2ccccn2)CC1` [Compound 170, 1-pyridin-2-yl-4-{3-[(pyridin-2-yloxy)methyl]benzoyl}piperazine], the inhibition constant Ki was greater than 10000 nM.

As to `O=C(c1cccc(COc2ccccc2)c1)N1CCN(c2ccccn2)CC1` [Compound 171, 1-[3-(phenoxymethyl)benzoyl]-4-pyridin-2-ylpiperazine], the inhibition constant Ki was greater than 10000 nM.

The same experiment, now with this note: single point, @ 10 μM compound; Table 3A; read-out: PCT INHIB (%) @ 10 μM.
As for `Cc1cccc(COc2cccc(C(=O)N3CCN(c4ccccn4)CC3)c2)c1` [Compound 150, 1-{3-[(3-methylbenzyl)oxy]benzoyl}-4-pyridin-2-ylpiperazine], the inhibition at 10 µM amounted to 0%.

Regarding `COc1ccc(C(=O)N2CCN(c3ccccn3)CC2)cc1OCc1cccc(C)c1` [Compound 151, 1-{4-methoxy-3-[(3-methylbenzyl)oxy]benzoyl}-4-pyridin-2-ylpiperazine], the inhibition at 10 µM was found to be 0%.

For `O=C(c1cccc(OCc2ccccc2)c1)N1CCN(c2ccccn2)CC1` [Compound 152, 1-[3-(benzyloxy)benzoyl]-4-pyridin-2-ylpiperazine], the inhibition at 10 µM turned out to be 0%.

As to `O=C(c1cccc(OCc2cccc(Br)c2)c1)N1CCN(c2ccccn2)CC1` [Compound 153, 1-{3-[(3-bromobenzyl)oxy]benzoyl}-4-pyridin-2-ylpiperazine], the inhibition at 10 µM amounted to 23%.

For the molecule `O=C(c1cccc(OCc2cccc(Cl)c2)c1)N1CCN(c2ccccn2)CC1` [Compound 154, 1-{3-[(3-chlorobenzyl)oxy]benzoyl}-4-pyridin-2-ylpiperazine], the inhibition at 10 µM was determined as 36%.

As for `COc1cccc(COc2cccc(C(=O)N3CCN(c4ccccn4)CC3)c2)c1` [Compound 155, 1-{3-[(3-methoxybenzyl)oxy]benzoyl}-4-pyridin-2-ylpiperazine], the inhibition at 10 µM is 0%.

For `N#Cc1cccc(COc2cccc(C(=O)N3CCN(c4ccccn4)CC3)c2)c1` [Compound 156, 3-({3-[(4-pyridin-2-ylpiperazin-1-yl)carbonyl]phenoxy}methyl)benzonitrile], the inhibition at 10 µM worked out at 0%.

On to `O=C(c1cccc(OCc2cccc(F)c2)c1)N1CCN(c2ccccn2)CC1` [Compound 157, 1-{3-[(3-fluorobenzyl)oxy]benzoyl}-4-pyridin-2-ylpiperazine], for which the inhibition at 10 µM was 18%.

Regarding `COc1ccc(C(=O)N2CCN(c3ccccn3)CC2)cc1OCc1ccccc1` [Compound 158, 1-[3-(benzyloxy)-4-methoxybenzoyl]-4-pyridin-2-ylpiperazine], the inhibition at 10 µM came out at 0%.

For `COc1ccc(C(=O)N2CCN(c3ccccn3)CC2)cc1OCc1cccc(Br)c1` [Compound 159, 1-{3-[(3-bromobenzyl)oxy]-4-methoxybenzoyl}-4-pyridin-2-ylpiperazine], the inhibition at 10 µM worked out at 26%.

In the case of `COc1ccc(C(=O)N2CCN(c3ccccn3)CC2)cc1OCc1cccc(Cl)c1` [Compound 160, 1-{3-[(3-chlorobenzyl)oxy]-4-methoxybenzoyl}-4-pyridin-2-ylpiperazine], the inhibition at 10 µM was 11%.

In the case of `COc1cccc(COc2cc(C(=O)N3CCN(c4ccccn4)CC3)ccc2OC)c1` [Compound 161, 1-{4-methoxy-3-[(3-methoxybenzyl)oxy]benzoyl}-4-pyridin-2-ylpiperazine], the inhibition at 10 µM was found to be 0%.

Take `COc1ccc(C(=O)N2CCN(c3ccccn3)CC2)cc1OCc1cccc(C#N)c1` [Compound 162, 3-({2-methoxy-5-[(4-pyridin-2-ylpiperazin-1-yl)carbonyl]phenoxy}methyl)benzonitrile]: the inhibition at 10 µM was 0%.

With `COc1ccc(C(=O)N2CCN(c3ccccn3)CC2)cc1OCc1cccc(F)c1` [Compound 163, 1-{3-[(3-fluorobenzyl)oxy]-4-methoxybenzoyl}-4-pyridin-2-ylpiperazine], the inhibition at 10 µM came to 11%.

The same experiment, now with this note: single point, @ 10 μM compound; Table 5; read-out: PCT INHIB (%) @ 10 μM.
Consider `O=S(=O)(c1cccc(C#Cc2cccc(O)c2)c1)N1CCN(c2ccccn2)CC1` [Compound 172, 3-({3-[(4-pyridin-2-ylpiperazin-1-yl)sulfonyl]phenyl}ethynyl)phenol], for which the inhibition at 10 µM came to 0%.

For `O=S(=O)(c1cccc(C#CC2=CCCCC2)c1)N1CCN(c2ccccn2)CC1` [Compound 173, 1-{[3-(cyclohex-1-en-1-ylethynyl)phenyl]sulfonyl}-4-pyridin-2-ylpiperazine], the inhibition at 10 µM was 0%.

Take `O=S(=O)(c1cccc(C#CCc2ccccc2)c1)N1CCN(c2ccccn2)CC1` [Compound 174, 1-{[3-(3-phenylprop-1-yn-1-yl)phenyl]sulfonyl}-4-pyridin-2-ylpiperazine]: the inhibition at 10 µM was determined as 0%.

Take `COc1cccc(C#Cc2cccc(S(=O)(=O)N3CCN(c4ccccn4)CC3)c2)c1` [Compound 175, 1-({3-[(3-methoxyphenyl)ethynyl]phenyl}sulfonyl)-4-pyridin-2-ylpiperazine]: the inhibition at 10 µM is 0%.

For `O=S(=O)(c1cccc(C#Cc2ccccc2)c1)N1CCN(c2ccccn2)CC1` [Compound 176, 1-{[3-(phenylethynyl)phenyl]sulfonyl}-4-pyridin-2-ylpiperazine], the inhibition at 10 µM stood at 0%.

The experiment is the same for the next values; noted with them: single point, @ 10 μM compound; Table 6; read-out: PCT INHIB (%) @ 10 μM.
`Oc1cccc(C#Cc2cccc(CN3CCN(c4ccccn4)CC3)c2)c1` [Compound 177, 3-({3-[(4-pyridin-2-ylpiperazin-1-yl)methyl]phenyl}ethynyl)phenol]: the inhibition at 10 µM was 13%.

As to `C(#Cc1cccc(CN2CCN(c3ccccn3)CC2)c1)C1=CCCCC1` [Compound 178, 1-[3-(cyclohex-1-en-1-ylethynyl)benzyl]-4-pyridin-2-ylpiperazine], the inhibition at 10 µM turned out to be 0%.

In the case of `C(#Cc1cccc(CN2CCN(c3ccccn3)CC2)c1)Cc1ccccc1` [Compound 179, 1-[3-(3-phenylprop-1-yn-1-yl)benzyl]-4-pyridin-2-ylpiperazine], the inhibition at 10 µM turned out to be 0%.

In the case of `Nc1cccc(C#Cc2cccc(CN3CCN(c4ccccn4)CC3)c2)c1` [Compound 180, 3-({3-[(4-pyridin-2-ylpiperazin-1-yl)methyl]phenyl}ethynyl)aniline], the inhibition at 10 µM came to 0%.

Consider `COc1cccc(C#Cc2cccc(CN3CCN(c4ccccn4)CC3)c2)c1` [Compound 181, 1-{3-[(3-methoxyphenyl)ethynyl]benzyl}-4-pyridin-2-ylpiperazine], for which the inhibition at 10 µM was 0%.
